Data published in PubChem BioAssay AID463204 (Broad Institute, 2010).
Active and inactive are the calls of the source.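 Rule for the calls: active = AC50 no more than ten times the top concentration tested, that is within one log above it; inconclusive = flat curve fit with activity between 30% and 70%, or invalid poor fit; inactive = AC50 beyond ten times the top tested dose.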

System: S. cerevisiae Mot1-301 ts growth rescue, BacTiter-Glo ATP luminescence
Assay: growth rescue of Mot1-301 ts yeast, confirmation, SUMOylation pathway inhibitor project, whole organism, S. cerevisiae, Mot1-301 ts mutant, luminescence, dose retest (AID 463204);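 note: growth at restrictive 38.5 degrees C of Mot1-301 OY566 strain; actives raise luminescence by restoring growth of the ts mutant at high temperature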

Row | SMILES | AC50
1 | Cc1nn(C)cc1CNC(=O)C1CCC(=O)N(Cc2cccc(C(F)(F)F)c2)C1 (stereo unspecified) | > 42 µM (inactive)
2 | CN1c2ccccc2-c2nc3ccccc3n2C1c1ccncc1 (stereo unspecified) | > 42 µM (inactive)
3 | CCOc1ccc(Cl)cc1S(=O)(=O)N1CCC(C(=O)NCc2cccnc2)CC1 | > 42 µM (inactive)
4 | CN(C)c1ccc(CN(Cc2ccco2)C(=O)c2ccco2)cc1 | > 42 µM (inactive)
5 | Cc1c(NC(=O)CN2C(=O)NC(C)(c3ccc(OC(F)F)cc3)C2=O)c(=O)n(-c2ccccc2)n1C (stereo unspecified) | > 42 µM (inactive)
6 | O=C(NC1CCCCCC1)C1CCN(S(=O)(=O)c2cccc3cccnc23)CC1 | > 42 µM (inactive)
7 | COC(=O)c1ccccc1NC(=O)c1cnn2c(C)cc(C)nc12 | > 42 µM (inactive)
8 | CC(=O)C1(c2ccccc2)CCNCC1 | > 21 µM (inactive)
9 | O=S(=O)(c1ccc(S(=O)(=O)N2CCCC2)cc1)N1CCCCC1 | > 42 µM (inactive)
10 | Cc1cccc2nc(COc3ccc4ccccc4c3Br)cn12 | 11.9 µM
11 | CCc1cc2c(=O)c(-c3nc4ccccc4n3C)c(C)oc2c(CN2CCOCC2)c1O | > 42 µM (inactive)
12 | CCOC(=O)N1CCN(c2nnnn2-c2ccccc2)CC1 | > 42 µM (inactive)
13 | N#CC1=C(N)OC2=C(C(=O)CCC2)C1C1CC=CCC1 (stereo unspecified) | > 42 µM (inactive)
14 | Cc1cc(C)cc(OC(=O)CS(=O)c2ccc(C(F)(F)F)cc2[N+](=O)[O-])c1 (stereo unspecified) | 3.48 µM
15 | C/C=C\C=C/C(=O)Nc1cccc(C2=NOC3(C2)C[C@@H](C(N)=O)N(C(=O)c2ccccc2)C3)c1 (stereo partly specified) | > 42 µM (inactive)
16 | O=C(N=C1SC2CS(=O)(=O)CC2N1c1ccc(F)c(Cl)c1)C1CC1 (stereo unspecified) | > 42 µM (inactive)
17 | CC(C)Oc1ccc(C2(C#N)CC[N+](C)(C)CC2)cc1 | > 42 µM (inactive)
18 | O=C(NNC(=O)c1csc(N2CCOCC2)n1)c1ccc(Cl)nc1 | > 42 µM (inactive)
19 | COCCN1C=C(C(=O)OC)C(c2cc3c(cc2Br)OCO3)C(C(=O)OC)=C1 | > 42 µM (inactive)
20 | CN(C)c1ccc(NC(=O)CSc2nc(N)c(C(=O)Nc3ccc(N(C)C)cc3)s2)cc1 | > 42 µM (inactive)
21 | N#C/C(=N\Nc1cccc(F)c1)C(=N)N1CCCCCC1 | > 42 µM (inactive)
22 | Cc1cccc(OCc2nnc(SCC(=O)O)n2-c2ccccc2)c1 | > 42 µM (inactive)
23 | Clc1ccc(CONc2ncnc3nonc23)c(Cl)c1 | 5.49 µM
24 | COc1cccc(NC(=O)CN2CCN(c3ccccc3F)CC2)c1 | 39.1 µM
25 | CCOC(=O)c1ccc(NC(=O)c2nc[nH]c2C(=O)N2CCc3ccccc3C2)cc1 | > 42 µM (inactive)
26 | Cc1ccccc1P(=O)(CO)c1ccccc1C | > 42 µM (inactive)

Row | SMILES | AC50
27 | CCCc1ccc(S(=O)(=O)NCCc2ccncc2)cc1 | > 42 µM (inactive)
28 | O=C(NCCCN1CCN(c2ccccc2F)CC1)Nc1ccccc1[N+](=O)[O-] | > 42 µM (inactive)
29 | N#C/C(=C\c1c(N(Cc2ccccc2)Cc2ccccc2)nc2ccccn2c1=O)C(N)=O | > 42 µM (inactive)
30 | COC(=O)c1sccc1NC(=O)CC1C(=O)NCCN1C(=O)Nc1ccc(F)cc1F (stereo unspecified) | > 42 µM (inactive)
31 | CN(C)CCOC(=O)CCc1ccccc1 | > 42 µM (inactive)
32 | CCCC(O)(CCC)C(=O)NNc1ccc(C)cc1 | > 42 µM (inactive)
33 | O=C(O)c1cc(S(=O)(=O)Nc2ccc(OCc3ccccc3)cc2)ccc1Br | > 42 µM (inactive)
34 | COCC(=O)n1nc(-c2ccccc2)nc1NCc1ccc(N(C)C)cc1 | > 42 µM (inactive)
35 | CCOC(=O)c1oc2cc(OC(C)=O)ccc2c(=O)c1-c1ccc(OC)c(OC)c1 | > 42 µM (inactive)
36 | Nc1nnnn1CC(=O)N/N=C/c1cccs1 | > 42 µM (inactive)
37 | CN(C)S(=O)(=O)c1ccc(Cl)c(NC(=O)CN2C(=O)NC(C)(C3CC3)C2=O)c1 (stereo unspecified) | > 42 µM (inactive)
38 | O=C(CSc1nnc(-c2cccs2)n1-c1ccccc1)c1ccc2c(c1)OCCO2 | > 42 µM (inactive)
39 | O=C1CCC(C(=O)N2CCN(c3ccccc3)CC2)CN1CC1CCCCC1 (stereo unspecified) | > 42 µM (inactive)
40 | CCOC(=O)N1CCN(C(=O)CNC(=O)c2nn(-c3ccc(OC)c(OC)c3)c(=O)c3ccccc23)CC1 | > 42 µM (inactive)
41 | Cc1cccc(-[n+]2c(-c3cccc(Br)c3)[nH]c3nc4ccccc4nc32)c1 | > 42 µM (inactive)
42 | Cc1onc(-c2ccccc2Cl)c1C(=O)N1CCc2ccccc2C1 | 34 µM
43 | Cc1cc(C)n(C(=O)CNC(=O)c2ccc3c(c2)OCCO3)n1 | > 42 µM (inactive)
44 | O=C1NC(=O)C(=Cc2ccc(N3CCOCC3)cc2)C(=O)N1 | > 42 µM (inactive)
45 | O=C(OCc1nnc(-c2ccccc2)o1)c1ccc([N+](=O)[O-])o1 | 4.12 µM
46 | O=C(Nc1cccc(O)c1)C(Cc1ccccc1)N1C(=O)c2cccc3cccc(c23)C1=O (stereo unspecified) | > 42 µM (inactive)
47 | O=C(CCSc1ccccc1)NNC(=O)c1ccccc1F | > 42 µM (inactive)
48 | CCCc1ccccc1OCCNC(C)=O | > 42 µM (inactive)
49 | Cc1ccc(NC2CC(=O)N(c3ccc(N4CCCCC4)cc3)C2=O)cc1 (stereo unspecified) | > 21 µM (inactive)
50 | CCc1nn(C)c(N)c1C | > 42 µM (inactive)
51 | COC(=O)c1ccc(/C=N/NC(=O)C(=O)NCC2CCCO2)cc1 (stereo unspecified) | > 42 µM (inactive)
52 | Cc1ccc(CSCCNC(=O)c2ccc(NS(C)(=O)=O)cc2)cc1 | > 42 µM (inactive)

Row | SMILES | AC50
53 | Cc1ccccc1NC(=O)COC(=O)C1C2CC3OC(=O)C1C3C2 (stereo unspecified) | > 42 µM (inactive)
54 | O=C(CP(=O)(c1ccccc1)c1ccccc1)N1CCOCC1 | > 42 µM (inactive)
55 | O=S1(=O)NC(c2ccccc2)CC(CC2CCCCC2)O1 (stereo unspecified) | 38.7 µM
56 | CCS(=O)c1ccccc1C(=O)O (stereo unspecified) | > 42 µM (inactive)
57 | Cn1c(SCC(=O)N/N=C/c2ccc([N+](=O)[O-])s2)nnc1-c1ccc(Cl)cc1 | 10.2 µM
58 | CC(C)(C)C(=O)NC1CCN(CC(=O)Nc2ccc3c(c2)OCO3)CC1 | > 42 µM (inactive)
59 | CS(=O)(=O)N1CCCC(C(=O)Nc2ccc(F)cc2F)C1 (stereo unspecified) | > 42 µM (inactive)
60 | CC(=O)Nc1sc2c(c1C(c1ccc(F)cc1)N1CCOCC1)CCCC2 (stereo unspecified) | 11.8 µM
61 | On1c(-c2ccccc2Cl)nc2ncccc21 | > 42 µM (inactive)
62 | CC(C)(C)NC(=S)NCc1cccnc1 | > 42 µM (inactive)
63 | O=C(O)Cc1sc(Nc2ccccc2)nc1-c1cccs1 | > 42 µM (inactive)
64 | COc1ccccc1N1C(=O)c2ccccc2NC1C(OC)OC (stereo unspecified) | > 42 µM (inactive)
65 | CCC(CC)NC(=O)c1oc2ccccc2c1COc1ccccc1 | > 42 µM (inactive)
66 | O=c1c2ccccc2nc(SCc2ccc([N+](=O)[O-])cc2)n1CCCO | > 42 µM (inactive)
67 | COc1ccc(C)cc1NC(=O)Cn1c(=O)oc2ccccc21 | > 42 µM (inactive)
68 | CCN(CC)CCNC(=O)CCn1c(=S)[nH]c2cc3c(cc2c1=O)OCO3 | > 110 µM (inactive)
69 | O=C1COc2ccc(C(=O)COC(=O)c3ncc(Cl)c(Cl)c3Cl)cc2N1 | > 42 µM (inactive)
70 | COc1ccc(/C=C2/SC(=O)N(NS(=O)(=O)c3ccccc3)C2=S)cc1OC | > 42 µM (inactive)
71 | N#CC1=C(N)Oc2c(ccc3ccccc23)C1c1cccs1 (stereo unspecified) | > 42 µM (inactive)
72 | COc1ccc(N(C(=O)c2ccco2)C(C(=O)NC2CCCCC2)c2ccccc2)cc1 (stereo unspecified) | > 42 µM (inactive)
73 | O=C(COc1cccc2cccnc12)N1CCc2ccccc21 | > 42 µM (inactive)
74 | Cc1nnc(SCC(=O)NC(C)(C)C)n1NCc1ccc(Cl)cc1 | > 42 µM (inactive)
75 | c1ccc2[nH]c(CSc3nccs3)nc2c1 | > 42 µM (inactive)
76 | N#CC(C#N)=CN=c1ccn(Cc2ccc(Cl)cc2Cl)cc1 | > 42 µM (inactive)
77 | Cc1ccccc1OCc1nc(-c2ccccc2)no1 | > 42 µM (inactive)
78 | O=C(c1ccc2c(=O)n(Cc3ccccc3Cl)c(=S)[nH]c2c1)N1CCOCC1 | > 42 µM (inactive)

Row | SMILES | AC50
79 | CC1CCC(C(C)C)C(OC(=O)COC(=O)c2cccn2C)C1 (stereo unspecified) | > 42 µM (inactive)
80 | CCn1cc(CCCC(=O)NCc2ccccc2OC)c2ccccc21 | > 42 µM (inactive)
81 | COc1ccc(NC(=O)C2CCN(c3cc(C)nc(-c4ccccc4)n3)CC2)cc1 | > 42 µM (inactive)
82 | COc1ccc(N2CCN(C3CCCN(Cc4cccc(OC)c4)C3)CC2)cc1 (stereo unspecified) | > 42 µM (inactive)
83 | CCOc1ccccc1NC(=O)CSc1nc(N)c(C#N)cc1C#N | > 42 µM (inactive)
84 | CCN(CC)CCCN(Cc1cc2cc(OC)ccc2[nH]c1=O)C(=O)Nc1ccc(F)cc1 | > 42 µM (inactive)
85 | Cc1ccc(S(=O)(=O)N(C)c2ccc(OC(=O)CN3C(=O)NC4(CCCC4)C3=O)cc2)cc1C | > 42 µM (inactive)
86 | S=c1[nH]nc(-c2ccccn2)n1/N=C/c1ccccc1 | > 42 µM (inactive)
87 | Cc1ccccc1C(=O)NN(C)c1nc2ccccc2nc1C(F)(F)F | > 42 µM (inactive)
88 | Cc1ccc(NC(=O)CN2CCN(CCN=CC3=C(O)CC(C)(C)CC3=O)CC2)cc1 | > 42 µM (inactive)
89 | Cc1nnsc1C(=O)N1CCC(CO)(Cc2ccccc2Cl)CC1 | > 42 µM (inactive)
90 | Cc1cccc(N2CCN(C(=O)CN3C(=O)NC(C)(C)C3=O)CC2)c1C | > 42 µM (inactive)
91 | CC1(C)CC(=O)c2cnc(NC(=O)CSc3nc4ccccc4o3)nc2C1 | > 42 µM (inactive)
92 | CCC1CCCCN1C(=O)CSc1nnc(CNC(=O)c2ccco2)o1 (stereo unspecified) | > 42 µM (inactive)
93 | Cc1ccc(C(=O)c2cc([N+](=O)[O-])ccc2N2CCCCC2)cc1C | > 42 µM (inactive)
94 | CCC1C(c2ccccc2)NC(c2ccccc2)CC1(O)c1ccc(F)cc1 (stereo unspecified) | > 42 µM (inactive)
95 | COc1ccc(Oc2c(C)oc3cc(OC(=O)N(C)C)ccc3c2=O)cc1 | > 42 µM (inactive)
96 | O=[N+]([O-])c1ccc(-c2csc(N3CCc4ccccc4C3)n2)cc1 | > 42 µM (inactive)
97 | NC(=O)C1=C[C@@H](c2ccc(Br)cc2)C[C@@H](OCCCCO)O1 | > 42 µM (inactive)
98 | COc1cccc(-n2c(SCC(=O)NC3CCCCC3)nc3n[nH]c(C)c3c2=N)c1 | > 42 µM (inactive)
99 | CS(=O)(=O)N1CCCC(C(=O)NCc2ccco2)C1 (stereo unspecified) | > 42 µM (inactive)
100 | CCn1nc(CC(=O)Nc2ccc(-n3cnnn3)c(C)c2)c2ccccc2c1=O | > 42 µM (inactive)
101 | CC(=O)c1cccc(NC(=O)CN(c2cccc(F)c2)S(C)(=O)=O)c1 | > 42 µM (inactive)
